Test results: ChEMBL document CHEMBL1201862, “PubChem BioAssay data set” (2004)
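The compound was tested at five concentrations on cells cultured in 96-well plates, with a 48-hour exposure period. GI50 is the concentration that inhibits growth by half.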 Active and inactive are the calls of the source. No stated cut-off is given here; in the data, active = GI50 up to about 1.1 µM and inactive = higher.

Experiments:
Assay in all cases: inhibition of tumour cell growth, NCI panel, 48 h
786-0 = tested on: 786-0
A549 = tested on: A549
ACHN = tested on: ACHN
BT-549 = tested on: BT-549
CAKI-1 = tested on: CAKI-1
CCRF-CEM = tested on: CCRF-CEM
COLO 205 = tested on: COLO 205
DU-145 = tested on: DU-145
EKVX = tested on: EKVX
HCC 2998 = tested on: HCC 2998
HCT-116 = tested on: HCT-116
HCT-15 = tested on: HCT-15
HOP-62 = tested on: HOP-62
HT-29 = tested on: HT-29
IGROV-1 = tested on: IGROV-1
K562 = tested on: K562
KM12 = tested on: KM12
LOX IMVI = tested on: LOX IMVI
M14 = tested on: M14
MCF7 = tested on: MCF7
MDA-MB-231 = tested on: MDA-MB-231
MDA-MB-435 = tested on: MDA-MB-435
MDA-N = tested on: MDA-N
MOLT-4 = tested on: MOLT-4
NCI-H23 = tested on: NCI-H23
NCI-H460 = tested on: NCI-H460
NCI-H522 = tested on: NCI-H522
NCI/ADR-RES = tested on: NCI/ADR-RES
OVCAR-3 = tested on: OVCAR-3
OVCAR-4 = tested on: OVCAR-4
OVCAR-5 = tested on: OVCAR-5
OVCAR-8 = tested on: OVCAR-8
PC-3 = tested on: PC-3
RPMI-8226 = tested on: RPMI-8226
RXF 393 = tested on: RXF 393
SF-268 = tested on: SF-268
SF-295 = tested on: SF-295
SF-539 = tested on: SF-539
SK-MEL-28 = tested on: SK-MEL-28
SK-MEL-2 = tested on: SK-MEL-2
SK-MEL-5 = tested on: SK-MEL-5
SK-OV-3 = tested on: SK-OV-3
SN12C = tested on: SN12C
SNB-19 = tested on: SNB-19
SNB-75 = tested on: SNB-75
SR = tested on: SR
SW-620 = tested on: SW-620
T47D = tested on: T47D
TK-10 = tested on: TK-10
U-251 = tested on: U-251
UACC-257 = tested on: UACC-257
UACC-62 = tested on: UACC-62
UO-31 = tested on: UO-31
A498 = tested on: A498
HL-60 = tested on: HL-60
HOP-92 = tested on: HOP-92
Hs-578T = tested on: Hs-578T
Malme-3M = tested on: Malme-3M
NCI-H226 = tested on: NCI-H226

With `COc1ccc(N[C@H](CSc2ccc(C)cc2)c2ccc(F)cc2)cc1` the GI50 (786-0) was > 100 µM (inactive), the GI50 (A549) was 74.6 µM (inactive) and the GI50 (ACHN) was > 100 µM (inactive). For the same molecule, the GI50 (BT-549) was > 100 µM (inactive), the GI50 (CAKI-1) was > 100 µM (inactive) and the GI50 (CCRF-CEM) was > 100 µM (inactive). The GI50 (COLO 205) was > 100 µM (inactive), the GI50 (DU-145) was > 100 µM (inactive) and the GI50 (EKVX) was > 100 µM (inactive). The GI50 (HCC 2998) was > 100 µM (inactive), the GI50 (HCT-116) was 45.8 µM (inactive) and the GI50 (HCT-15) was 65.5 µM. For the same molecule, the GI50 (HOP-62) was > 100 µM (inactive), the GI50 (HT-29) was > 100 µM (inactive) and the GI50 (IGROV-1) was > 100 µM (inactive). The GI50 (K562) was 52 µM (inactive), the GI50 (KM12) was > 100 µM (inactive) and the GI50 (LOX IMVI) was 29.4 µM (inactive). The GI50 (M14) was > 100 µM (inactive), the GI50 (MCF7) was 61.8 µM (inactive) and the GI50 (MDA-MB-231) was > 100 µM (inactive). For the same molecule, the GI50 (MDA-MB-435) was > 100 µM (inactive), the GI50 (MDA-N) was 71.1 µM (inactive) and the GI50 (MOLT-4) was 3.23 µM (inactive). The GI50 (NCI-H23) was 39.3 µM (inactive), the GI50 (NCI-H460) was > 100 µM (inactive) and the GI50 (NCI-H522) was 38.9 µM (inactive). The GI50 (NCI/ADR-RES) was > 100 µM (inactive), the GI50 (OVCAR-3) was > 100 µM (inactive) and the GI50 (OVCAR-4) was 67.5 µM (inactive). The GI50 (OVCAR-5) was > 100 µM (inactive), the GI50 (OVCAR-8) was > 100 µM (inactive) and the GI50 (PC-3) was > 100 µM (inactive). The GI50 (RPMI-8226) was 23.9 µM (inactive), the GI50 (RXF 393) was 68.5 µM (inactive) and the GI50 (SF-268) was > 100 µM (inactive). The GI50 (SF-295) was > 100 µM (inactive), the GI50 (SF-539) was > 100 µM (inactive) and the GI50 (SK-MEL-28) was > 100 µM (inactive). For the same molecule, the GI50 (SK-MEL-2) was > 100 µM (inactive), the GI50 (SK-MEL-5) was 57.3 µM (inactive) and the GI50 (SK-OV-3) was > 100 µM (inactive). For the same molecule, the GI50 (SN12C) was > 100 µM (inactive), the GI50 (SNB-19) was > 100 µM (inactive) and the GI50 (SNB-75) was > 100 µM (inactive). The GI50 (SR) was 25.2 µM (inactive), the GI50 (SW-620) was > 100 µM (inactive) and the GI50 (T47D) was 24.6 µM (inactive). For the same molecule, the GI50 (TK-10) was > 100 µM (inactive), the GI50 (U-251) was > 100 µM (inactive) and the GI50 (UACC-257) was 40 µM (inactive). The GI50 (UACC-62) was 65.8 µM (inactive) and the GI50 (UO-31) was > 100 µM (inactive).

`C1CCCCC2(CCCCCCCCC3(CCC1)SCCS3)SCCS2` was tested, and the GI50 (786-0) was > 100 µM (inactive), the GI50 (A498) was > 100 µM (inactive) and the GI50 (A549) was > 100 µM (inactive). For the same molecule, the GI50 (ACHN) was > 100 µM (inactive), the GI50 (CAKI-1) was > 100 µM (inactive) and the GI50 (COLO 205) was > 100 µM (inactive). The GI50 (DU-145) was > 100 µM (inactive), the GI50 (EKVX) was > 100 µM (inactive) and the GI50 (HCC 2998) was > 100 µM (inactive). The GI50 (HCT-116) was > 100 µM (inactive), the GI50 (HCT-15) was > 100 µM and the GI50 (HL-60) was > 100 µM (inactive). The GI50 (HOP-62) was > 100 µM (inactive), the GI50 (HOP-92) was > 100 µM (inactive) and the GI50 (HT-29) was > 100 µM (inactive). For the same molecule, the GI50 (Hs-578T) was > 100 µM (inactive), the GI50 (IGROV-1) was > 100 µM (inactive) and the GI50 (K562) was > 100 µM (inactive). For the same molecule, the GI50 (KM12) was > 100 µM (inactive), the GI50 (LOX IMVI) was > 100 µM (inactive) and the GI50 (M14) was > 100 µM (inactive). For the same molecule, the GI50 (MCF7) was > 100 µM (inactive), the GI50 (MDA-MB-435) was > 100 µM (inactive) and the GI50 (MDA-N) was > 100 µM (inactive). The GI50 (Malme-3M) was > 100 µM (inactive), the GI50 (NCI-H226) was > 100 µM (inactive) and the GI50 (NCI-H23) was > 100 µM (inactive). For the same molecule, the GI50 (NCI-H460) was > 100 µM (inactive), the GI50 (NCI-H522) was > 100 µM (inactive) and the GI50 (NCI/ADR-RES) was > 100 µM (inactive). For the same molecule, the GI50 (OVCAR-3) was > 100 µM (inactive), the GI50 (OVCAR-4) was > 100 µM (inactive) and the GI50 (OVCAR-5) was > 100 µM (inactive). The GI50 (OVCAR-8) was > 100 µM (inactive), the GI50 (PC-3) was > 100 µM (inactive) and the GI50 (SF-268) was > 100 µM (inactive). The GI50 (SF-295) was > 100 µM (inactive), the GI50 (SF-539) was > 100 µM (inactive) and the GI50 (SK-MEL-28) was > 100 µM (inactive). The GI50 (SK-MEL-2) was > 100 µM (inactive), the GI50 (SK-MEL-5) was > 100 µM (inactive) and the GI50 (SK-OV-3) was > 100 µM (inactive). For the same molecule, the GI50 (SN12C) was > 100 µM (inactive), the GI50 (SNB-19) was > 100 µM (inactive) and the GI50 (SNB-75) was > 100 µM (inactive). The GI50 (SR) was > 100 µM (inactive), the GI50 (SW-620) was > 100 µM (inactive) and the GI50 (T47D) was > 100 µM (inactive). The GI50 (TK-10) was > 100 µM (inactive), the GI50 (U-251) was > 100 µM (inactive) and the GI50 (UACC-257) was > 100 µM (inactive). The GI50 (UACC-62) was > 100 µM (inactive).
